Results on three compounds are retold here after patent US20060210497A1, “Novel resorcinol derivatives” (Unilever Home & Personal Care USA, Division Of Conopco, Inc., priority 2005, published 2006).

For assay [1], the system named is human sebocytes. Kind of assay: Sebocyte assay (14C-acetate incorporation, sebocyte lipid synthesis). It counts as cell-based. As for the experimental part:
Sebocyte Assay Procedure:
Secondary cultures of human sebocytes obtained from an adult […] were grown in 96-well tissue culture plates (Packard) until three days post-confluence. Sebocyte growth medium consisted of Clonetics Keratinocyte Basal Medium (KBM) supplemented with 14 ug/ml bovine pituitary extract, 0.4 ug/ml hydrocortisone, 5 ug/ml insulin, 10 ng/ml epidermal growth factor, 1.2×10^−10 M cholera toxin, 100 units/ml penicillin, and 100 ug/ml streptomycin. All cultures were incubated at 37° C. in the presence of 7.5% CO2. Medium was changed three times per week.
On the day of experimentation, the growth medium was removed and the sebocytes washed three times with sterile Dulbecco's Modified Eagle Medium (DMEM; phenol red free). Fresh DMEM was added to each sample (triplicates) with 2-microliters of test agent solubilized in ethanol. Controls consisted of addition of ethanol alone. Each plate was returned to the incubator for 20-hours followed by the addition of ^14C-acetate buffer (5 mM final concentration, 56 mCi/mmol specific activity). Sebocytes were returned to the incubator for 4-hours, after which, each culture was rinsed 3-times with phosphate buffered saline to remove unbound label. Radioactive label remaining in the sebocytes was determined using a Packard TopCount scintillation counter. Statistical significance (p value) was calculated using student's t-test. Phenol Red, a known sebum suppressive agent, was employed as a positive control.

The target of assay [2] is Mushroom tyrosinase. Kind of assay: Mushroom tyrosinase assay. It counts as biochemical. The settings on record: for IC50: L-DOPA 0.5 mM, tyrosinase 0.1 mg/ml, phosphate pH 7.0, room temperature; for potency of tyrosinase inhibition, compared in words: cyclohexyl methyl resorcinol compared with ethyl resorcinol. The method, then:
Mushroom Tyrosinase Assay Mushroom tyrosinase inhibition is indicative of reduction in melanin synthesis, thereby showing skin lightening effect. Reagents: • Assay buffer: phosphate (100 mM, pH 7.0) • Mushroom tyrosinase stock solution (Sigma-Aldrich, Batch # 023K7024): 0.2 mg/ml in assay buffer • L-DOPA stock solution: 1.05 mM in assay buffer • Test compound stock solutions: 10 mM in DMSO Assay Conditions: • Mushroom tyrosinase: 0.1 mg/ml in assay buffer • L-DOPA: 0.5 mM in assay buffer • Test compounds: various concentrations, 2.5% final [DMSO] • Temperature: room temperature Procedure: […] The reaction is started by adding mushroom tyrosinase (100 uL of stock solution) into each well and the absorbance is monitored at 490 nm over a time period of 30 sec to 2 min. The initial reaction velocity in the presence or absence of test compounds is calculated ([…] nm/ min) and the % inhibition of test compounds is calculated using the following equation: [formula] where v0 is the initial reaction velocity in the absence of compound, v is the slope of the reaction in the absence of mushroom tyrosinase and vi is the slope of the reaction in the presence of test compound. The data (% inhibition vs. [test compound]) is fitted using data analysis software and the concentration of test compound at 50% inhibition (IC50) is determined from the fitted data. The IC50 value refers to the skin lightener concentration that results in 50% tyrosinase inhibition relative to the control (with a goal being obtaining maximum tyrosinase inhibition at minimum concentration).

As to `O=S1(=O)OC(c2ccc(O)cc2)(c2ccc(O)cc2)c2ccccc21` [Phenol Red, reference compound], in assay [1] (Homo sapiens, 28 uM test agent, 20 h incubation then 4 h 14C-acetate label, read-out: % of Control (ethanol)), the activity at 28 µM came to 84.4%. Also, in assay [1] (Homo sapiens, 280 uM test agent, 20 h incubation then 4 h 14C-acetate label, read-out: % of Control (ethanol)), the activity at 280 µM came out at 45.9%.

Broadly, the IC50 is the point on the concentration scale where inhibition reaches its midpoint. Higher therefore signals lower potency. Regarding `Oc1ccc(CC2CCCCC2)c(O)c1` [CHMR, 4-cyclohexylmethyl resorcinol], in assay [2], the half-maximal inhibitory concentration (IC50) amounted to 0.95 µM and the “potency of tyrosinase inhibition, compared in words” value was “comparable potency”. The activity at 10 µM in assay [1] (Homo sapiens, 10 uM test agent, 20 h incubation then 4 h 14C-acetate label, read-out: % of Control (ethanol)) is 98.9%. The activity at 100 µM in assay [1] (Homo sapiens, 100 uM test agent, 20 h incubation then 4 h 14C-acetate label, read-out: % of Control (ethanol)) is 69.3%. Moreover, in assay [1] (concentration on the order of about 100 micro-molar), the “reduction in sebocyte lipid synthesis as compared to the vehicle control” value is “statistically significant reduction”.

As to `CCc1ccc(O)cc1O` [4-ethyl resorcinol (ER), 4-ethyl resorcinol, reference compound], in assay [2], inhibition was half-maximal at 1.1 µM (IC50) and the “potency of tyrosinase inhibition, compared in words” value is on record as “comparable potency”.
